# Data as given in the supplement of paper PMC11061612.
# Legend:
# [1] = tested on: TT2609-C02 (Thyroid Gland Carcinoma); assay: combination Emax (second highest fraction inhibited in the dose matrix, 72 h); higher = more inhibition; extreme values may be limits of the assay
# Summary of the method: (§1)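 Bliss excess equals the observed combination effect minus the expected value EA + EB − EA·EB, where EA and EB are the effects of each agent alone. Combination Emax is the second-highest inhibition within the matrix. Inhibition was scaled from CellTiter-Glo 2.0 luminescence, with 0 set by vehicle wells and 1 by blank wells, after 72 hours of two-drug dosing of cells plated in 1536-well plates.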
# FU97 (Gastric Carcinoma) = assay: as above
# Summary of the method: as §1
# [2] = tested on: HCC1954 (Breast Carcinoma); assay: as above
# Summary of the method: as §1
# [3] = tested on: NCI-H1581 (Non-Small Cell Lung Carcinoma); assay: Bliss excess, mean over the matrix (fraction); higher = more synergy
# Summary of the method: as §1
# PA-1 (Ovarian Carcinoma) = assay: as above
# Summary of the method: as §1
# [4] = tested on: CAL-29 (Bladder Carcinoma); assay: as above
# Summary of the method: as §1
# [5] = tested on: NCI-H1650 (Lung Adenocarcinoma); assay: as above
# Summary of the method: as §1
# [6] = tested on: A3-KAW (B-Cell Non-Hodgkin's Lymphoma); assay: as above
# Summary of the method: as §1
# U-2-OS (Osteosarcoma) = assay: as above
# Summary of the method: as §1
# NY (Osteosarcoma) = assay: as above
# Summary of the method: as §1
# [7] = tested on: COR-L311 (Small Cell Lung Carcinoma); assay: as above
# Summary of the method: as §1
# [8] = tested on: BICR22 (Oral Cavity Carcinoma); assay: as above
# Summary of the method: as §1
# [9] = tested on: SK-MG-1 (Low Grade Glioma); assay: as above
# Summary of the method: as §1
# [10] = tested on: COLO-320-HSR (Colorectal Carcinoma); assay: as above
# Summary of the method: as §1
# [11] = tested on: SK-MES-1 (Squamous Cell Lung Carcinoma); assay: as above
# Summary of the method: as §1
# A498 (Kidney Carcinoma) = assay: as above
# Summary of the method: as §1
# [12] = tested on: TT (Thyroid Gland Carcinoma); assay: as above
# Summary of the method: as §1
# CAS-1 (Glioblastoma) = assay: as above
# Summary of the method: as §1
# [13] = tested on: A549 (Lung Adenocarcinoma); assay: as above
# Summary of the method: as §1
# [14] = tested on: NCI-H1666 (Lung Adenocarcinoma); assay: as above
# Summary of the method: as §1
Compound,combination Emax [1],combination Emax (FU97 (Gastric Carcinoma)),combination Emax [2],Bliss excess [3],Bliss excess (PA-1 (Ovarian Carcinoma)),Bliss excess [4],Bliss excess [5],Bliss excess [6],Bliss excess (U-2-OS (Osteosarcoma)),Bliss excess (NY (Osteosarcoma)),Bliss excess [7],Bliss excess [8],Bliss excess [9],Bliss excess [10],Bliss excess [11],Bliss excess (A498 (Kidney Carcinoma)),Bliss excess [12],Bliss excess (CAS-1 (Glioblastoma)),Bliss excess [13],Bliss excess [14]
"CN(C)CCCOc1ccc(-c2ccc3ncc4c(c3c2)n(C2CCOCC2)c(=O)n4C)cn1 [AZD0156] + C=CCn1c(=O)c2cnc(Nc3ccc(N4CCN(C)CC4)cc3)nc2n1-c1cccc(C(C)(C)O)n1 [AZD1775] (first compound max 1 µM, partner max 1 µM)",0.334,0.367,0.181,-0.0641,-0.0546,-0.0301,-0.0451,0.0707,0.0036,-0.0212,-0.115,-0.0146,0.0174,-0.0454,-0.0176,-0.0532,-0.0951,-0.0512,-0.0807,-0.0371
"CN(C)CCCOc1ccc(-c2ccc3ncc4c(c3c2)n(C2CCOCC2)c(=O)n4C)cn1 [AZD0156] + CCN(CCO)CCCOc1ccc2c(Nc3cc(CC(=O)Nc4cccc(F)c4)[nH]n3)ncnc2c1 [AZD2811] (first compound max 1 µM, 7x7, partner max 1 µM)",0.258,0.188,0.0882,-0.007,0.038,0.0269,-0.0571,0.121,-0.0148,-0.0466,0.0607,0.0091,0.0212,-0.0278,-0.0458,-0.0302,-0.0871,0.0191,-0.0431,-0.0661
"CN(C)CCCOc1ccc(-c2ccc3ncc4c(c3c2)n(C2CCOCC2)c(=O)n4C)cn1 [AZD0156] + C[C@@H]1COCCN1C2=NC(=NC(=C2)C3(CC3)[S@](=N)(=O)C)C4=C5C=CNC5=NC=C4 [AZD6738] (first compound max 1 µM, 7x7, partner max 10 µM)",0.144,0.414,0.435,0.0005,-0.0238,0.0162,-0.0294,0.0876,0.0445,-0.0372,0.0265,-0.0626,0.0249,-0.0146,-0.0406,-0.0347,-0.0583,-0.0046,-0.0652,-0.0274
"CN(C)CCCOc1ccc(-c2ccc3ncc4c(c3c2)n(C2CCOCC2)c(=O)n4C)cn1 [AZD0156] + O=C(c1cc(Cc2n[nH]c(=O)c3ccccc23)ccc1F)N1CCN(C(=O)C2CC2)CC1 [Olaparib] (first compound max 3 µM, partner max 3 µM)",0.152,0.422,0.218,0.0465,0.122,0.0098,-0.0462,0.276,0.0203,-0.0279,0.092,-0.0003,0.0333,0.104,-0.0199,0.047,-0.0297,0.0481,0.0069,0.0049
"C=CCn1c(=O)c2cnc(Nc3ccc(N4CCN(C)CC4)cc3)nc2n1-c1cccc(C(C)(C)O)n1 [AZD1775] + C1CN(CCC1(C(=O)N[C@@H](CCO)C2=CC=C(C=C2)Cl)N)C3=NC=NC4=C3C=CN4 [Capivasertib] (first compound max 3 µM, partner max 3 µM)",0.466,0.471,0.914,0.0271,-0.0229,0.0187,-0.0473,0.0032,-0.0453,-0.0746,-0.0057,0.0369,-0.0212,-0.0314,0.04,-0.0315,-0.0079,0.0104,0.015,-0.0773
"C=CCn1c(=O)c2cnc(Nc3ccc(N4CCN(C)CC4)cc3)nc2n1-c1cccc(C(C)(C)O)n1 [AZD1775] + C[C@@H]1COCCN1C2=NC(=NC(=C2)C3(CC3)[S@](=N)(=O)C)C4=C5C=CNC5=NC=C4 [AZD6738] (first compound max 1 µM, partner max 10 µM)",0.393,0.373,0.77,0.0228,-0.01,-0.006,-0.0054,0.0285,0.0364,-0.0386,0.0133,0.0233,-0.0173,0.0852,-0.0223,-0.0536,-0.0676,-0.0535,-0.0313,0.0189
"C=CCn1c(=O)c2cnc(Nc3ccc(N4CCN(C)CC4)cc3)nc2n1-c1cccc(C(C)(C)O)n1 [AZD1775] + O=C(c1cc(Cc2n[nH]c(=O)c3ccccc23)ccc1F)N1CCN(C(=O)C2CC2)CC1 [Olaparib] (first compound max 1 µM, partner max 10 µM)",0.358,0.281,0.218,-0.0262,-0.0037,-0.0722,-0.0643,0.0183,-0.0258,-0.0731,-0.0848,-0.106,0.0058,-0.0404,-0.0915,-0.067,-0.0543,-0.0352,-0.0667,0.0278
"CCN(CCO)CCCOc1ccc2c(Nc3cc(CC(=O)Nc4cccc(F)c4)[nH]n3)ncnc2c1 [AZD2811] + C=CCn1c(=O)c2cnc(Nc3ccc(N4CCN(C)CC4)cc3)nc2n1-c1cccc(C(C)(C)O)n1 [AZD1775] (first compound max 1 µM, partner max 1 µM)",0.361,0.219,0.161,0.154,0.0565,0.0208,-0.0277,0.0539,-0.0039,-0.0363,-0.176,-0.0093,-0.0121,-0.0465,-0.0112,-0.0494,-0.0155,0.032,0.015,-0.0282
"CCN(CCO)CCCOc1ccc2c(Nc3cc(CC(=O)Nc4cccc(F)c4)[nH]n3)ncnc2c1 [AZD2811] + C[C@@H]1COCCN1C2=NC(=NC(=C2)C3(CC3)[S@](=N)(=O)C)C4=C5C=CNC5=NC=C4 [AZD6738] (first compound max 1 µM, 7x7, partner max 10 µM)",0.331,0.373,0.39,-0.0438,-0.0116,-0.0023,-0.0801,-0.0417,-0.0297,-0.0508,-0.0642,-0.059,-0.0271,-0.0366,-0.0484,-0.0832,-0.0905,-0.0818,-0.106,-0.0633
"CCN(CCO)CCCOc1ccc2c(Nc3cc(CC(=O)Nc4cccc(F)c4)[nH]n3)ncnc2c1 [AZD2811] + O=C(c1cc(Cc2n[nH]c(=O)c3ccccc23)ccc1F)N1CCN(C(=O)C2CC2)CC1 [Olaparib] (first compound max 1 µM, 7x7, partner max 10 µM)",0.299,0.332,0.152,-0.0058,0.0873,0.0378,-0.025,0.0053,0.0112,-0.0339,-0.0088,-0.0861,0.0331,-0.0179,-0.0127,-0.0656,-0.0596,-0.0608,-0.0061,-0.0746
"COc1nnc2ccc(N3CCC(c4ccc(OCCN5CCN(C)C(=O)[C@H]5C)cc4)CC3)nn12 [AZD5153] + CN(CC[C@H](CSC1=CC=CC=C1)NC2=C(C=C(C=C2)S(=O)(=O)NC(=O)C3=CC=C(C=C3)N4CCC(CC4)[C@H](C5=CC=CC=C5C6=CC=C(C=C6)Cl)O)S(=O)(=O)C(F)(F)F)CCO [AZD4320] (first compound max 1 µM, 7x7, partner max 1 µM)",0.424,,0.322,,0.0659,-0.0125,-0.0124,-0.0232,0.0178,,0.0506,,0.0462,,0.0704,0.0103,,0.0455,-0.0236,
"CC(=O)c1c(C)c2cnc(Nc3ccc(N4CCNCC4)cn3)nc2n(C2CCCC2)c1=O [Palbociclib] + CN(CC[C@H](CSC1=CC=CC=C1)NC2=C(C=C(C=C2)S(=O)(=O)NC(=O)C3=CC=C(C=C3)N4CCC(CC4)[C@H](C5=CC=CC=C5C6=CC=C(C=C6)Cl)O)S(=O)(=O)C(F)(F)F)CCO [AZD4320] (first compound max 10 µM, 7x7, partner max 1 µM)",0.29,,0.32,,-0.0315,-0.0702,-0.0805,0.0082,-0.0727,,0.0047,,-0.078,,-0.0549,-0.134,,-0.143,-0.0929,
"CCc1c2c(nc3ccc(O)cc13)-c1cc3c(c(=O)n1C2)COC(=O)[C@]3(O)CC [SN-38] + O=C(c1cc(Cc2n[nH]c(=O)c3ccccc23)ccc1F)N1CCN(C(=O)C2CC2)CC1 [Olaparib] (first compound max 0.3 µM, 7x7, partner max 10 µM)",,0.277,,0.0009,0.0044,,0.0138,,0.0159,0.071,,0.0626,0.0512,-0.0523,,0.036,0.0545,-0.0274,0.0064,0.0889
"C[C@@H](c1ccc2nccn2c1)n1nnc2ncc(-c3cnn(C)c3)nc21 [Savolitinib] + CN(CC[C@H](CSC1=CC=CC=C1)NC2=C(C=C(C=C2)S(=O)(=O)NC(=O)C3=CC=C(C=C3)N4CCC(CC4)[C@H](C5=CC=CC=C5C6=CC=C(C=C6)Cl)O)S(=O)(=O)C(F)(F)F)CCO [AZD4320] (first compound max 1 µM, 7x7, partner max 1 µM)",0.174,,0.412,,-0.0096,-0.0647,-0.0646,-0.0158,-0.0128,,0.0158,,-0.0651,,-0.0188,-0.0589,,-0.0975,-0.0576,
"CC(=O)Nc1cccc(-n2c(=O)n(C3CC3)c(=O)c3c(Nc4ccc(I)cc4F)n(C)c(=O)c(C)c32)c1 [Trametinib] + Cc1nc(-c2cn3c(n2)-c2ccc(-c4cnn(C(C)(C)C(N)=O)c4)cc2OCC3)n(C(C)C)n1 [Taselisib] (first compound max 1 µM, 7x7, partner max 10 µM)",0.821,,0.949,0.243,0.05,0.136,0.0443,0.173,0.122,0.0847,0.0018,0.16,0.144,0.0338,0.198,0.0344,0.0288,0.0153,0.0568,0.0857
